US20020103185A1, “Pyrazole derivatives” (priority 2000, published 2002)
Where a name gives a salt, the structure may show the parent alone.

melting point	SMILES
180.1 °C	O=C(NC1CCC(c2cc(Nc3cccc(C(F)(F)F)c3)n[nH]2)C1)c1ccccn1 (centres unmarked) (as salt: HCl) [Example 31, Pyridine-2-carboxylic acid {3-[5-(3-trifluoromethyl-phenylamino)-2H-pyrazol-3-yl]-cyclopentyl}-amide]
232.4 °C	O=C(NC1CCC(c2cc(Nc3cccc(C(F)(F)F)c3)n[nH]2)C1)C1CCC1 (centres unmarked) (as salt: HCl) [Example 33, Cyclobutanecarboxylic acid {3-[5-(3-trifluoromethyl-phenylamino)-2H-pyrazol-3-yl]-cyclopentyl}-amide]
249.2 °C	CC(C)(C)C(=O)NC1CCC(c2cc(Nc3cccc(C(F)(F)F)c3)n[nH]2)C1 (centres unmarked) (as salt: HCl) [Example 34, 2,2-Dimethyl-N-{3-[5-(3-trifluoromethyl-phenylamino)-2H-pyrazol-3-yl]-cyclopentyl}-propionamide]
142.8 °C	O=C(Cc1cccc2ccccc12)Nc1cc([C@H]2C[C@@H](NC(=O)c3cccc(C(F)(F)F)c3)C2)[nH]n1 (as salt: HCl) [Example 45, N-{cis-3-[5-(2-Naphthalen-1-yl-acetylamino)-2H-pyrazol-3-yl]-cyclobutyl}-3-trifluoromethyl-benzamide]
93.2 °C	O=C(Cc1cccc2ccccc12)Nc1cc([C@H]2C[C@@H](NC(=O)CC3CC3)C2)[nH]n1 (as salt: HCl) [Example 50, 2-Cyclopropyl-N-{cis-3-[5-(2-naphthalen-1-yl-acetylamino)-2H-pyrazol-3-yl]-cyclobutyl}-acetamide]

The remaining lines, values behind:

SMILES	melting point
COc1cccc(C(=O)N[C@H]2C[C@@H](c3cc(NC(=O)Cc4cccc5ccccc45)n[nH]3)C2)c1 (as salt: HCl) [Example 44, 3-Methoxy-N-{cis-3-[5-(2-naphthalen-1-yl-acetylamino)-2H-pyrazol-3-yl]-cyclobutyl}-benzamide]	124.8 °C
CC(C)C(=O)N[C@H]1C[C@@H](c2cc(NC(=O)Cc3cccc4ccccc34)n[nH]2)C1 (as salt: HCl) [Example 46, N-{cis-3-[5-(2-Naphthalen-1-yl-acetylamino)-2H-pyrazol-3-yl]-cyclobutyl}-isobutyramide]	130.6 °C
O=C(Cc1cccc2ccccc12)Nc1cc([C@H]2C[C@@H](NC(=O)C3CC3c3ccccc3)C2)[nH]n1 (stereo partly drawn) (as salt: HCl) [Example 47, 2-Phenyl-cyclopropanecarboxylic acid {cis-3-[5-(2-naphthalen-1-yl-acetylamino)-2H-pyrazol-3-yl]-cyclobutyl}-amide]	139.8 °C
CC(=O)N[C@H]1C[C@@H](c2cc(NC(=O)Cc3cccc4ccccc34)n[nH]2)C1 (as salt: HCl) [Example 48, N-[5-(cis-3-Acetylamino-cyclobutyl)-1H-pyrazol-3-yl]-2-naphthalen-1-yl-acetamide]	209.4 °C
O=C(Cc1cccc2ccccc12)Nc1cc([C@H]2C[C@@H](NC(=O)c3ccccc3)C2)[nH]n1 (as salt: HCl) [Example 49, N-{cis-3-[5-(2-Naphthalen-1-yl-acetylamino)-2H-pyrazol-3-yl]-cyclobutyl}-benzamide]	194 °C
O=C(Cc1cccc2ccccc12)Nc1cc([C@H]2C[C@@H](NC(=O)c3ccc4ccccc4n3)C2)[nH]n1 (as salt: HCl) [Example 52, Quinoline-2-carboxylic acid {cis-3-[5-(2-naphthalen-1-yl-acetylamino)-2H-pyrazol-3-yl]-cyclobutyl}-amide]	200.3 °C
COc1ccc(C(=O)N[C@H]2C[C@@H](c3cc(NC(=O)Cc4cccc5ccccc45)n[nH]3)C2)cc1 (as salt: HCl) [Example 54, 4-Methoxy-N-{cis-3-[5-(2-naphthalen-1-yl-acetylamino)-2H-pyrazol-3-yl]-cyclobutyl}-benzamide]	175.6 °C
O=C(Cc1cccc2ccccc12)Nc1cc([C@H]2C[C@@H](NC(=O)c3cccc([N+](=O)[O-])c3)C2)[nH]n1 (as salt: HCl) [Example 55, N-{cis-3-[5-(2-Naphthalen-1-yl-acetylamino)-2H-pyrazol-3-yl]-cyclobutyl}-3-nitro-benzamide]	123.5 °C
O=C(Cc1cccc2ccccc12)Nc1cc([C@H]2C[C@@H](Oc3nc4ccccc4o3)C2)[nH]n1 (as salt: HCl) [Example 63, N-{5-[cis-3-(Benzooxazol-2-yloxy)-cyclobutyl]-1H-pyrazol-3-yl}-2-naphthalen-1-yl-acetamide]	142 °C
